Paper PMC11489250, “Optimized methods for measuring competitive binding of chemical substances to thyroid hormone distributor proteins transthyretin and thyroxine binding globulin” (Archives of Toxicology, 2024)
pIC50, pKi: −log10 of the molar value. Where two headings read alike, the source gives them in different places.

Assays:
[1] = molecular target: T1, Human TTR (Homo sapiens, UniProt P02766); assay: Optimized competitive TTR-binding assay with FITC-T4 (fluorescence intensity readout)
T1 construct: Transthyretin (prealbumin, TTR) >95% from human plasma; purchased Sigma Aldrich (Zwijndrecht, The Netherlands); host or cells: human plasma
Procedure: All TTR-binding experiments were performed in black 96-well polystyrene nonbinding plates. Experimental wells and background wells were prepared in triplicate per plate. […] Fluorescence intensity (FI) was measured at λex = 485 ± 20 nm and λem = 528 ± 20 nm (CLARIOstar Plus microplate reader, BMG LABTECH).
To test the effect of the change in temperature and incubation time, a saturation experiment (N = 3, n = 3) was performed in Tris–HCl buffer (0.1 M Tris (Thermo Scientific, Rockford, USA), 0.1 M NaCl (Merck KGaA, Darmstadt, Germany), 1 mM EDTA (VWR International, B.V. Amsterdam, The Netherlands); pH 8.0). […] Two 96-well plates were prepared at the same time. After shaking for 5 min on a plate shaker, one prepared plate was incubated on ice (at 4 °C) and another plate was incubated at room temperature (22 °C). For both plates the fluorescence was measured at different time points: 5 min, 15 min, 60 min and 120 min.
First, 48 µL Tris–HCl buffer (pH 8.0) was pipetted to the wells, followed by 2 µL of the compound (in DMSO). […] Final solvent (DMSO) concentrations in all conditions amounted to 1%. All plates were shaken for 5 min on a plate shaker, followed by an incubation for 15 min at room temperature. The standard operation procedure (SOP) is provided in Supplementary Information file (Section 3).
Calculations of the ICX, Kd and Ki values of TTR-binding assays are described in the Supplementary Information file (Section 3).
3.7.5 The competitive TTR binding screening assay
3.7.8 Processing data to determine IC50 and calculate Ki value

[2] = molecular target: T2, thyroxine-binding globulin (TBG) (Homo sapiens, UniProt P05543); assay: Competitive TBG-binding assay with FITC-T4 (fluorescence polarization readout)
T2 construct: purchased Bio-rad Laboratories, Inc. (Veenendaal, The Netherlands)
T2 sequence (P05543 21-415): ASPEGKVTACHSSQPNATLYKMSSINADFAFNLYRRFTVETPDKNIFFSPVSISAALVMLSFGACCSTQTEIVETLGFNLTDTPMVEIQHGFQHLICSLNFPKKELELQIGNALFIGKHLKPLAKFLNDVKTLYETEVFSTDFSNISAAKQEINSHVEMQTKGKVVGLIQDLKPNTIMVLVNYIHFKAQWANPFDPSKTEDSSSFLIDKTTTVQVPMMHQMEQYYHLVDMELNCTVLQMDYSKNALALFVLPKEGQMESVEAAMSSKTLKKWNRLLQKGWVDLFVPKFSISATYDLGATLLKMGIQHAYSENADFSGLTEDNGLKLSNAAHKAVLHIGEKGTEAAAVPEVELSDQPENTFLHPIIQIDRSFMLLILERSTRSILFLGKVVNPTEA
Procedure: Prepared plates were first shaken for 5 min and then incubated for 15 min at room temperature before being analysed by the microplate reader at FP mode (CLARIOstar Plus, BMG LABTECH).
Accordingly, dilution series of all compounds were prepared in DMSO. First, 24 µL Tris–HCl buffer was pipetted to the wells, followed by 1 µL of the compound stock solution. […] Solvent (DMSO) concentrations in all conditions were 1%. The plates were shaken for 5 min on a plate shaker, followed by an incubation for 15 min at room temperature.
The adjusted polarization was set to a reference value of 35 mP. The adjustment gain values ranged from 1900 to 2200. The plate layout of TBG-binding assay is provided in Supplementary Information file (Section 4).
For the competitive TBG-binding experiments, concentration–response curves were fitted:2 r=rmin+rmax-rmin/1+IC50/X^HillSlope with rmin and rmax being the minimum and maximum anisotropy values, respectively. X is the concentration of added competitor. Equations that were used for the calculation of the ICX and Ki values in the TTR-binding assays (Supplementary Information, Section 3) were also used to determine the ICX and Ki values in TBG-binding assays without any changes, respectively. The single Kd, IC20, IC50 and Ki were determined based on replicates (n) in each experiment, and then the average and confidence intervals were determined based on the Kd, IC20, IC50 and Ki values from sperate experiments (N).
Alternatively, another approach to determine ICX, Kd and Ki values based on a theoretical model of ligand–protein binding biochemistry was taken as described in detail in the Supplementary Information file (Section 5). For this approach, R was used to fit the model to the data. The results obtained from the two approaches were compared in Section 3.4.
S5.2 Ki and IC50 estimation

[3] = system: Recombinant TTR; parameters: method as in Marchesini et al. [2006]; conditions: highest concentration tested 10 µM; ref Marchesini et al. [2006]; cited from earlier work
[4] = molecular target: TTR; conditions: calculated by Ki = 1/binding constant; ref Cao et al. [2011]; read-out: TTR literature Ki; cited from earlier work
[5] = molecular target: TBG; conditions: calculated by Ki = 1/binding constant; ref Cao et al. [2011]; read-out: TBG literature Ki; cited from earlier work
[6] = system: TBG; parameters: method as in Marchesini et al. [2006]; conditions: highest concentration tested 10 µM; ref Marchesini et al. [2006]; cited from earlier work
[7] = T4EQi = highest human blood concentration x T4-REPi

IC20 ([1]; 110 nM FITC-T4, 30 nM TTR, RT, 15 min, average [95% CI], read-out: TTR IC20): 14.7 µM
pIC50 ([1]; 110 nM FITC-T4, 30 nM TTR, RT, 15 min, average [95% CI], read-out: TTR IC50): 4.20
pKi ([1]; 110 nM FITC-T4, 30 nM TTR, RT, 15 min, derived from IC20, average [95% CI], read-out: TTR Ki): 4.49
Relative potency compared to T4 (T4-REP), TTR-binding assay ([1]; T4-REPi = IC20(T4)/IC20(i)): 0.002
T4EQ concentration (TTR binding) [1, 7]: 0.16 nM
Contribution to T4EQ concentration (TTR binding) ([1]; mixture of highest human blood concentrations of five model compounds): 0.8%
pKi ([2]; 5 nM FITC-T4, 10 nM TBG, RT, 15 min, derived from IC20, descriptive model (Graphpad), average [95% CI], read-out: TBG Ki): 4.77
pIC50 ([2]; 5 nM FITC-T4, 10 nM TBG, RT, 15 min, descriptive model (Graphpad), average [95% CI]): 3.76
IC20 ([2]; 5 nM FITC-T4, 10 nM TBG, RT, 15 min, descriptive model (Graphpad), average [95% CI], read-out: TBG IC20): 32.6 µM
IC20 ([2]; 5 nM FITC-T4, 10 nM TBG, RT, theoretical model in R, average [95% CI], read-out: TBG IC20, theoretical model): 35.7 µM
pKi ([2]; 5 nM FITC-T4, 10 nM TBG, RT, theoretical model in R, average [95% CI], read-out: TBG Ki values, theoretical model): 4.73
Relative potency compared to T4 (T4-REP), TBG-binding assay ([2]; T4-REPi = IC20(T4)/IC20(i)): 0.0003
T4EQ concentration (TBG binding) [2, 7]: 0.023 nM
Contribution to T4EQ concentration (TBG binding) ([2]; mixture of highest human blood concentrations of TBBPA, triclosan and BPA): 1.1%
SMILES: CC(C)(c1ccc(O)cc1)c1ccc(O)cc1 [BPA, bisphenol-A]
competitive binding to TTR (in words) [3]: no competitive binding
pKi [4]: 5.49
pKi [5]: 5.77
competitive binding to TBG (in words) [6]: no competitive binding
